{"source": "patent US12121540B2", "about": "“CBL inhibitors and compositions for use in adoptive cell therapy” (Nurix Therapeutics, Inc., priority 2019, dated 2024)", "key": {"[1]": {"test": "Compound stability in complete RPMI with 10% human serum (mass spectrometry)", "type": "physicochemical", "experimental": "To assess compound stability, at day 1, 1 μM compound 103 or DMSO was added to complete RMPI containing 10% human serum and stored at either 4° C., 22° C. or 37° C. over an 11 day time period. Concentration of compound 103 was assessed at each indicated timepoint and storage temperature by mass spectrometry. Compound 103 was stable for at least 11 days in RPMI medium (FIG. 33)."}, "OT-1 cells": {"test_system": "OT-1 cells", "test": "FACS of transferred OT-1 cells in blood and tumor of E.G7-OVA mice", "type": "in vivo, mouse", "experimental": "Dead cells were removed (Miltenyi Biotec Cat #130-090-101) prior to transfer in vivo to monitor their trafficking and function in an EG.7 lymphoma model, which expresses the OVA antigen. Approximately five million cells per mouse were transferred to mice having an average tumor burden of about 70 mm^3. Following in vivo transfer of the OT-1 cells, antitumor response was monitored over time and the quality and quantity of immune response were assessed at various time points.\nThe expanded OT-1 cells were characterized by FACS analysis and transferred into E.G7-OVA mice, which bear ovalbumin (OVA) expressing tumors. Following in vivo transfer of expanded OT-1 cells, antitumor response was monitored over time and the quality and quantity of immune response was assessed at various time points. Analysis included FACS analysis on blood, tumor, and spleen samples. Analysis also included re-stimulation of splenocytes with OVA Class I peptide to evaluate the multifunctionality of the antigen-specific effector T cells.\nOn Day 0, E.G7-OVA cells were implanted into each mouse. On Day 5, approximately 5×10^6 in vitro expanded OT-1 cells were injected into the tail of each mouse. On Day 9, blood was analyzed by FACS. On Day 14, blood, tumor and spleen samples were analyzed by FACS. On Day 27, blood was analyzed by FACS. Tumor volume was measured approximately every five days through about 50 days post implant.\nOT-1 cells were expanded according to the previous examples and administered to E.G7-OVA mice, which bear ovalbumin (OVA) expressing tumors. The cells were evaluated for their in vivo properties.\nExpanded OT-1 cells were assessed in blood 4 days and 22 days after transfer.\nExpanded OT-1 cells were assessed in tumors 4 days after transfer."}, "breast TIL": {"test_system": "breast TIL", "test": "CDR3 diversity of expanded breast TIL (iRepertoire sequencing)", "type": "cell-based, human", "conditions": "compound 103 alone or with high dose IL-2; 14 days in GREX10", "experimental": "TIL were cultured for 14 days in GREX10. […] The raw data were analyzed by iRepertoire using IRmap programs with a modified Smith-Waterman algorithm. Using CDR3 algerbra software, the calculation of shared CDR3s across samples with the indicated treatment was assessed. […] All CDR3 frequencies were scaled to 10 million reads to account for differences in read depth among samples. Data was normalized so that each uCDR3-VDJ combination was treated as a quantity of 1 regardless of read count, and then analyzed for V usage and J usage."}, "[2]": {"test_system": "human T cells from peripheral blood mononuclear cells", "test": "Flow cytometry immunophenotyping of T cells expanded from donor PBMC", "type": "cell-based", "conditions": "for CD4 TCM, percentage of total cell number / CD4 TEM, percentage of total cell number / CD4 TSCM, percentage of total cell number / CD8 TCM, percentage of total cell number / CD8 TEM, percentage of total cell number / CD8 TSCM, percentage of total cell number: donor PBMC, day 11", "from_the_text": "At day eleven, cells were pooled and counted, and immunophenotyped at day 11 by flow cytometry by measuring expression of lineage (CD4, CD8) and differentiation (including CD45RA, CD45RO, CD95, CCR7, CD62L, TCF1, PD-1, TIM3, LAG3) markers.\nT lymphocytes were defined based on lineage and differentiation marker expression according to the developmental model (Restifo, Blood, 124:476-477, 2014), as shown in Table 4."}, "[3]": {"test_system": "TIL from human ovarian, colon and breast cancer tissues", "test": "Phenotype of TIL expanded in 24 well or GREX10 format (flow cytometry)", "type": "cell-based", "experimental": "Initial studies involved TIL expansion with ovarian and CRC tumor tissues (average about 0.5-0.8 g). These were fragmented into multiple pieces (approximately 2 mm^3 in size), and one fragment was added per 24 well plate. […] The wells were then pooled by treatment and total cell numbers were assessed by flow cytometry. Following TIL expansion the phenotypes of the cells were characterized. They were majority CD45RO+ and CD4+ and CD8+.\nTIL directly derived from fresh ovarian and colon cancer tissues (fresh, n=8) obtained after 28 days' ex vivo culture of cancer tissue fragments were analyzed by flow cytometry. FIG. 24 provides FACS data showing percentages of central memory(CD45RO+CCR7+) and effector memory (CD45RO+CCR7−) phenotype among CD8+CD45RO+, respectively. FACS results expressed as the mean±SEM. Statistical significance calculated using two-tailed Wilcoxon signed-rank test (*, p<0.05). The CD8 T cells were further characterized by assessing T cell differentiation phenotypic markers; CCR7 and CD45RO. […] This indicates the expansion of a less differentiated, persistent T cell.\nTIL directly derived from fresh ovarian, colon and breast cancer tissues (fresh, n=7) obtained after 14 days' ex vivo culture of cancer tissue fragments were analyzed by flow cytometry. FIG. 26 provides FACS data showing percentages of central memory […] phenotype among CD8+CD45RO+, respectively. FACS results were expressed as the mean±SEM."}, "[4]": {"conditions": "6000 IU IL-2 + 1 uM compound 103, 28 days, 24 well"}}}
{"compound": "C[C@@H]1CN(Cc2cc3c(c(C(F)(F)F)c2)CN(c2cccc(C4(Cc5nncn5C)COC4)c2)C3=O)CCC1(F)F", "note": "[compound 103]", "values": [{"measurement": "Stability in RPMI medium", "setting": "[1]; 1 μM, complete RPMI with 10% human serum, 4° C., 22° C. or 37° C.", "result": "at least 11 days"}, {"measurement": "Stability at multiple temperatures", "setting": "[1]; 4° C.-37° C., 11 day period, FIG. 33", "result": "stable"}, {"measurement": "Frequency in total CD45+ cells and persistence in blood vs IL-2 alone or anti-CD3 alone", "setting": "OT-1 cells; Cbl inhibitor expanded, 4 and 22 days after transfer", "result": "higher frequency in total CD45+ cells and persisted longer"}, {"measurement": "Tumor infiltration (frequency in total CD45+ cells in tumor) vs IL-2 alone or anti-CD3 alone", "setting": "OT-1 cells; Cbl inhibitor expanded, 4 days after transfer", "result": "increased ability to infiltrate the tumor"}, {"measurement": "OT-1 cells expressing stem markers TCF1+, PD-1+, TIM-3−", "setting": "OT-1 cells; OT-1 cells expanded with Cbl inhibitor", "result": "greater percentage of cells that expressed stem markers"}, {"measurement": "Frequency in total CD45+ cells and persistence in blood", "setting": "OT-1 cells; expanded with Cbl inhibitor and IL-2, 4 and 22 days after transfer", "result": "even higher frequency in total CD45+ cells and higher persistence"}, {"measurement": "Tumor infiltration (frequency in total CD45+ cells in tumor)", "setting": "OT-1 cells; expanded with Cbl inhibitor and IL-2, 4 days after transfer", "result": "highest frequency in total CD45+ cells"}, {"measurement": "Expression of exhaustion markers PD1, TIM3, LAG3 in tumor vs IL-2 alone", "setting": "OT-1 cells; expanded with Cbl inhibitor or Cbl inhibitor plus IL-2", "result": "lower level of expression of exhaustion markers"}, {"measurement": "Unique CDR3s", "setting": "breast TIL", "result": "Unique CDR3s increased"}, {"measurement": "Percentage of CD8+ cells vs IL-2 alone", "setting": "[2]; 1 μM Cbl inhibitor alone", "result": "higher percentages of CD8+ cells"}, {"measurement": "Percentage of CD8+ cells in culture", "setting": "[2]; IL-2 in combination with 0.1 or 0.5 μM of Cbl inhibitor", "result": "highest percentage of CD8+ cells"}, {"measurement": "CD4 TCM, percentage of total cell number", "setting": "[2]; 0.1 μM Cbl-i", "result": 53.1, "unit": "%"}, {"measurement": "CD4 TEM, percentage of total cell number", "setting": "[2]; 0.1 μM Cbl-i", "result": 23.9, "unit": "%"}, {"measurement": "CD4 TSCM, percentage of total cell number", "setting": "[2]; 0.1 μM Cbl-i", "result": 12, "unit": "%"}, {"measurement": "CD8 TCM, percentage of total cell number", "setting": "[2]; 0.1 μM Cbl-i", "result": 50.7, "unit": "%"}, {"measurement": "CD8 TEM, percentage of total cell number", "setting": "[2]; 0.1 μM Cbl-i", "result": 14.2, "unit": "%"}, {"measurement": "CD8 TSCM, percentage of total cell number", "setting": "[2]; 0.1 μM Cbl-i", "result": 17.1, "unit": "%"}, {"measurement": "CD4 TCM, percentage of total cell number", "setting": "[2]; 1.0 μM Cbl-i", "result": 55.3, "unit": "%"}, {"measurement": "CD4 TEM, percentage of total cell number", "setting": "[2]; 1.0 μM Cbl-i", "result": 19.3, "unit": "%"}, {"measurement": "CD4 TSCM, percentage of total cell number", "setting": "[2]; 1.0 μM Cbl-i", "result": 7.27, "unit": "%"}, {"measurement": "CD8 TCM, percentage of total cell number", "setting": "[2]; 1.0 μM Cbl-i", "result": 61.1, "unit": "%"}, {"measurement": "CD8 TEM, percentage of total cell number", "setting": "[2]; 1.0 μM Cbl-i", "result": 12.9, "unit": "%"}, {"measurement": "CD8 TSCM, percentage of total cell number", "setting": "[2]; 1.0 μM Cbl-i", "result": 7.29, "unit": "%"}, {"measurement": "CD4 TCM, percentage of total cell number", "setting": "[2]; 10 μM Cbl-i", "result": 47.3, "unit": "%"}, {"measurement": "CD4 TEM, percentage of total cell number", "setting": "[2]; 10 μM Cbl-i", "result": 23.3, "unit": "%"}, {"measurement": "CD4 TSCM, percentage of total cell number", "setting": "[2]; 10 μM Cbl-i", "result": 1.37, "unit": "%"}, {"measurement": "CD8 TCM, percentage of total cell number", "setting": "[2]; 10 μM Cbl-i", "result": 34.2, "unit": "%"}, {"measurement": "CD8 TEM, percentage of total cell number", "setting": "[2]; 10 μM Cbl-i", "result": 9.23, "unit": "%"}, {"measurement": "CD8 TSCM, percentage of total cell number", "setting": "[2]; 10 μM Cbl-i", "result": 10.8, "unit": "%"}, {"measurement": "CD4 TCM, percentage of total cell number", "setting": "[2]; IL-2 + 0.1 μM Cbl-i", "result": 13.9, "unit": "%"}, {"measurement": "CD4 TEM, percentage of total cell number", "setting": "[2]; IL-2 + 0.1 μM Cbl-i", "result": 29.7, "unit": "%"}, {"measurement": "CD4 TSCM, percentage of total cell number", "setting": "[2]; IL-2 + 0.1 μM Cbl-i", "result": 8.53, "unit": "%"}, {"measurement": "CD8 TCM, percentage of total cell number", "setting": "[2]; IL-2 + 0.1 μM Cbl-i", "result": 47.8, "unit": "%"}, {"measurement": "CD8 TEM, percentage of total cell number", "setting": "[2]; IL-2 + 0.1 μM Cbl-i", "result": 18.3, "unit": "%"}, {"measurement": "CD8 TSCM, percentage of total cell number", "setting": "[2]; IL-2 + 0.1 μM Cbl-i", "result": 4.2, "unit": "%"}, {"measurement": "CD4 TCM, percentage of total cell number", "setting": "[2]; IL-2 + 1.0 μM Cbl-i", "result": 16.8, "unit": "%"}, {"measurement": "CD4 TEM, percentage of total cell number", "setting": "[2]; IL-2 + 1.0 μM Cbl-i", "result": 28.4, "unit": "%"}, {"measurement": "CD4 TSCM, percentage of total cell number", "setting": "[2]; IL-2 + 1.0 μM Cbl-i", "result": 1.98, "unit": "%"}, {"measurement": "CD8 TCM, percentage of total cell number", "setting": "[2]; IL-2 + 1.0 μM Cbl-i", "result": 37.8, "unit": "%"}, {"measurement": "CD8 TEM, percentage of total cell number", "setting": "[2]; IL-2 + 1.0 μM Cbl-i", "result": 41.4, "unit": "%"}, {"measurement": "CD8 TSCM, percentage of total cell number", "setting": "[2]; IL-2 + 1.0 μM Cbl-i", "result": 0.23, "unit": "%"}, {"measurement": "CD4 TCM, percentage of total cell number", "setting": "[2]; IL-2 + 10 μM Cbl-i", "result": 24.3, "unit": "%"}, {"measurement": "CD4 TEM, percentage of total cell number", "setting": "[2]; IL-2 + 10 μM Cbl-i", "result": 25.8, "unit": "%"}, {"measurement": "CD4 TSCM, percentage of total cell number", "setting": "[2]; IL-2 + 10 μM Cbl-i", "result": 2.69, "unit": "%"}, {"measurement": "CD8 TCM, percentage of total cell number", "setting": "[2]; IL-2 + 10 μM Cbl-i", "result": 49, "unit": "%"}, {"measurement": "CD8 TEM, percentage of total cell number", "setting": "[2]; IL-2 + 10 μM Cbl-i", "result": 10.6, "unit": "%"}, {"measurement": "CD8 TSCM, percentage of total cell number", "setting": "[2]; IL-2 + 10 μM Cbl-i", "result": 9.36, "unit": "%"}, {"measurement": "Selective expansion of CD8+ T lymphocytes", "setting": "[2]; donor PBMCs, FIGS. 2A and 2B", "result": "selectively expand CD8+ T lymphocytes"}, {"measurement": "% CD4 T cells vs IL-2 alone", "setting": "[3]; [4]", "result": "decrease in the % of CD4"}, {"measurement": "CD8 T cells vs IL-2 alone", "setting": "[3]; [4]", "result": "corresponding increase in CD8"}, {"measurement": "Central memory T cells (CCR7+CD45RO+) among CD8 vs IL-2 alone", "setting": "[3]; IL-2 + compound 103, 28 days, FIG. 24", "result": "significant increase of central memory T cells"}, {"measurement": "CD8 T cell expansion (% and total numbers)", "setting": "[3]; IL-2 + compound 103, GREX 10, 14 days", "result": "increased expansion of CD8 T cells"}]}
